Measured values as given in PMC4046888 (Cancer cell, 2011).
Like-named read-outs stand apart in the source and are kept apart here.

Experiments:
[1] = system: histone methyl marks in MV4-11 cells; experiment: Immunoblot with panel of methyl-lysine and methyl-arginine specific antibodies; assay type: cell-based, human; conditions: 10 μM
[2] = system: H3K79me2 levels in MV4-11 cells; experiment: Immunoblot of extracted histones for H3K79me2; assay type: cell-based, human
[3] = system: RS4;11 cells (MLL-AF4); experiment: Cell proliferation, viable cell count; assay type: cell-based; conditions: Homo sapiens, RS4-11, 336 h, read-out: IC50 inhibition of cell proliferation
[4] = system: HOXA9 and MEIS1 transcript levels in MOLM-13 cells; experiment: Quantitative real-time PCR, concentration response; conditions: Homo sapiens, MOLM-13, 144 h
[5] = system: U937 cells (nonrearranged); experiment: Cell proliferation, viable cell count; assay type: cell-based; conditions: Homo sapiens, U-937, 336 h, read-out: IC50 inhibition of cell proliferation
[6] = system: SEM cells (MLL-AF4); experiment: Cell proliferation, viable cell count; assay type: cell-based; conditions: Homo sapiens, 336 h, read-out: IC50 inhibition of cell proliferation
[7] = system: CD14 expression in MOLM-13 cells; experiment: Flow cytometry for cell surface CD14; assay type: cell-based, human; conditions: 3 μM, 12 days
[8] = system: HOXA9 and MEIS1 transcript levels in MV4-11 cells; experiment: Quantitative real-time PCR, concentration response; conditions: Homo sapiens, MV4-11, 144 h
[9] = Plasma concentration by LC-MS/MS, mini-osmotic pump infusion; assay type: in vivo, mouse; conditions: for average steady-state plasma concentration: pilot PK
[10] = molecular target: PRMT8 (Homo sapiens, UniProt Q9NR22); experiment: Histone methyltransferase panel IC50, balanced conditions
Sequence of PRMT8 (Q9NR22 whole entry): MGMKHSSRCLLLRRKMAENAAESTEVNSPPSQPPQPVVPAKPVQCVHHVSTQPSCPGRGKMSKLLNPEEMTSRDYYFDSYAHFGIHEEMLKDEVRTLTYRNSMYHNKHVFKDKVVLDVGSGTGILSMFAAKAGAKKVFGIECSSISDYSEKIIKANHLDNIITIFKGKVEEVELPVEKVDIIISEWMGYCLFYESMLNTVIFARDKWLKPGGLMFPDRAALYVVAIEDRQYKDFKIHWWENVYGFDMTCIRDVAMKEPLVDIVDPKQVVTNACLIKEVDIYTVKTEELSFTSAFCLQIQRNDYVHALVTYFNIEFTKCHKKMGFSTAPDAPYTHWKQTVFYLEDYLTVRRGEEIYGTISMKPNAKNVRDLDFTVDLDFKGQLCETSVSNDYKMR

[11] = system: Kasumi-1 cells (nonrearranged); experiment: Cell proliferation, viable cell count; assay type: cell-based; conditions: Homo sapiens, Kasumi 1, 336 h, read-out: IC50 inhibition of cell proliferation
[12] = system: H3K79me2 in MLL-AF9 transformed hematopoietic progenitors; experiment: Immunoblot for H3K79me2 in transformed progenitors; assay type: cell-based, murine; conditions: 10 days
[13] = system: hematopoietic progenitors transformed by coexpression of HoxA9 and Meis1a; experiment: Proliferation of transformed hematopoietic progenitors; assay type: cell-based, murine; conditions: concentrations of up to 30 μM
[14] = system: REH cells (nonrearranged); experiment: Cell proliferation, viable cell count; assay type: cell-based; conditions: Homo sapiens, 336 h, read-out: IC50 inhibition of cell proliferation
[15] = system: normal C57BL/6 mice; experiment: Hematologic analysis and tolerability in normal mice; assay type: in vivo, mouse; conditions: pump 150 mg/ml, 14 days
[16] = molecular target: CARM1 (Homo sapiens, UniProt Q86X55); experiment: Histone methyltransferase panel IC50, balanced conditions
Sequence of CARM1 (Q86X55 whole entry): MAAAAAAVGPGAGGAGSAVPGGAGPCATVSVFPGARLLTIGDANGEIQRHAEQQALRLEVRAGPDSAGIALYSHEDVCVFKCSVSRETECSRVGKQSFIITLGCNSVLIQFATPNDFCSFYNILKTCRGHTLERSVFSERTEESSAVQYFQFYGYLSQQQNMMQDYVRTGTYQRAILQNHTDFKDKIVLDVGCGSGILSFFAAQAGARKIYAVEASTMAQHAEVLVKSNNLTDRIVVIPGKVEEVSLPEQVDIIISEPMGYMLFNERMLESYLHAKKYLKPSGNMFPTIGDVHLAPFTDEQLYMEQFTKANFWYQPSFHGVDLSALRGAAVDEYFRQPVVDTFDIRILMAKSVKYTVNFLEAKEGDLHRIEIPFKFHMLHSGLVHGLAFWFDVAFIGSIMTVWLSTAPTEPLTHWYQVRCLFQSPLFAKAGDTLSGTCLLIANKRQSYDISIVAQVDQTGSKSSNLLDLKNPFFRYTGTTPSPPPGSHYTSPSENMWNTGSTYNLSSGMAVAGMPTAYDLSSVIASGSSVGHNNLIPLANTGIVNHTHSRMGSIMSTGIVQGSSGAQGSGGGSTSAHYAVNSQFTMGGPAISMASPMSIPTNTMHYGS

[17] = system: MV4-11 cells; experiment: Flow cytometry for DNA content and Annexin V; assay type: cell-based, human; conditions: 3 μM
[18] = molecular target: EZH2 (in the context of the PRC2 multiprotein complex) (Homo sapiens, UniProt Q15910); experiment: Histone methyltransferase panel IC50, balanced conditions
[19] = system: HL-60 cells (nonrearranged); experiment: Cell proliferation, viable cell count; assay type: cell-based; conditions: Homo sapiens, HL-60, 336 h, read-out: IC50 inhibition of cell proliferation
[20] = system: H3K79me2 in Hoxa9-Meis1a transformed hematopoietic progenitors; experiment: Immunoblot for H3K79me2 in transformed progenitors; assay type: cell-based, murine; conditions: 10 days
[21] = system: MOLM-13 cells (MLL-AF9); experiment: Cell proliferation, viable cell count; assay type: cell-based, human
[22] = system: MV4-11 cells injected into tail vein of NSG mice; experiment: Disseminated MV4-11 leukemia model, survival; assay type: in vivo, mouse
[23] = molecular target: SETD7 (Homo sapiens, UniProt Q8WTS6); experiment: Histone methyltransferase panel IC50, balanced conditions
Sequence of SETD7 (Q8WTS6 whole entry): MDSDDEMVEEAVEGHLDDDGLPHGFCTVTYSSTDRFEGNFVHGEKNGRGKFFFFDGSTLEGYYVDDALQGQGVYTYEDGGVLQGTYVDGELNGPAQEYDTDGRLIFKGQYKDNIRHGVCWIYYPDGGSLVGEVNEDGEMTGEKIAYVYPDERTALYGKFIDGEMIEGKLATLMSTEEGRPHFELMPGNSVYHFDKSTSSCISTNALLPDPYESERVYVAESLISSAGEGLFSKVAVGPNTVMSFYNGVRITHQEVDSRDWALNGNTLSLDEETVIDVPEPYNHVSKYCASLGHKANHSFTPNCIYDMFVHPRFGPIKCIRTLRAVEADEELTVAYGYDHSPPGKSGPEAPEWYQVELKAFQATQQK

[24] = molecular target: PRMT5 (Homo sapiens, UniProt O14744); experiment: as above
Sequence of PRMT5 (O14744 whole entry): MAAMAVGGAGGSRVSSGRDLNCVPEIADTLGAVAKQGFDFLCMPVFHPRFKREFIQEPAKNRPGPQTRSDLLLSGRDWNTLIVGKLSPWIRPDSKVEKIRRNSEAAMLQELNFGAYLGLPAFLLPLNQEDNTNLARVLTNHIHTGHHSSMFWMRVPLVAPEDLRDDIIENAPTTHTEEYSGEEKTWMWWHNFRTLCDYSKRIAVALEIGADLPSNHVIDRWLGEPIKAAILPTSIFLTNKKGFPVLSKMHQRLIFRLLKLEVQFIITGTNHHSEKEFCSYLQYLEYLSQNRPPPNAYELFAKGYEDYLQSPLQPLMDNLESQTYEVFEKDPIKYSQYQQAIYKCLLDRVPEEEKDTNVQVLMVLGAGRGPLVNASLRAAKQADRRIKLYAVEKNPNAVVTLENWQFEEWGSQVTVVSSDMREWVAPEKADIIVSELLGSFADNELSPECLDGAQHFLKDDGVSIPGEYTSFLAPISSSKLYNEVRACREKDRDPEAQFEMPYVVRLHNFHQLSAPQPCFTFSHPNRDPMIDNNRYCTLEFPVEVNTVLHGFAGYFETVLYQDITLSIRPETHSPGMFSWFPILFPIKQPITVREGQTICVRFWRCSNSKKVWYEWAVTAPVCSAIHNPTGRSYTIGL
Sequence of PRMT5 (Q9BQA1 whole entry partner): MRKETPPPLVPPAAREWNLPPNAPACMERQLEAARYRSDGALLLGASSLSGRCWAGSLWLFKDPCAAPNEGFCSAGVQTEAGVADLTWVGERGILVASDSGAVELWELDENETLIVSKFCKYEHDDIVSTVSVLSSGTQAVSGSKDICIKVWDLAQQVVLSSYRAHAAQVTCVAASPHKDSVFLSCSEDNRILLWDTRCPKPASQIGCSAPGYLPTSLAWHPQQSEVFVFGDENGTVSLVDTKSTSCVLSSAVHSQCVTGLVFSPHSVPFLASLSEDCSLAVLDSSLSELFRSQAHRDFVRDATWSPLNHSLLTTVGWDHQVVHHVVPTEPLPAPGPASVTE

[25] = system: HOXA9, MEIS1 and TBP mRNA in MV4-11 and MOLM-13 cells; experiment: Quantitative real-time PCR, time course at 3 μM; assay type: cell-based, human
[26] = system: MV4-11 cells (MLL-AF4); experiment: Cell proliferation, viable cell count; assay type: cell-based, human
[27] = molecular target: EZH1 (in the context of the PRC2 multiprotein complex) (Homo sapiens, UniProt Q92800); experiment: Histone methyltransferase panel IC50, balanced conditions
[28] = system: Jurkat cells (nonrearranged); experiment: Cell proliferation, viable cell count; assay type: cell-based, human
[29] = system: KOPN-8 cells (MLL-ENL); experiment: Cell proliferation, viable cell count; assay type: cell-based; conditions: Homo sapiens, KOPN-8, 336 h, read-out: IC50 inhibition of cell proliferation
[30] = Solubility; assay type: physicochemical
[31] = system: 697 cells (nonrearranged); experiment: Cell proliferation, viable cell count; assay type: cell-based; conditions: Homo sapiens, 336 h, read-out: IC50 inhibition of cell proliferation
[32] = system: H3K79me2 levels in MOLM-13 cells; experiment: Immunoblot of extracted histones for H3K79me2; assay type: cell-based, human; conditions: 4 days, increasing concentrations
[33] = molecular target: PRMT1 (Homo sapiens, UniProt Q99873); experiment: Histone methyltransferase panel IC50, balanced conditions
Sequence of PRMT1 (Q99873 whole entry): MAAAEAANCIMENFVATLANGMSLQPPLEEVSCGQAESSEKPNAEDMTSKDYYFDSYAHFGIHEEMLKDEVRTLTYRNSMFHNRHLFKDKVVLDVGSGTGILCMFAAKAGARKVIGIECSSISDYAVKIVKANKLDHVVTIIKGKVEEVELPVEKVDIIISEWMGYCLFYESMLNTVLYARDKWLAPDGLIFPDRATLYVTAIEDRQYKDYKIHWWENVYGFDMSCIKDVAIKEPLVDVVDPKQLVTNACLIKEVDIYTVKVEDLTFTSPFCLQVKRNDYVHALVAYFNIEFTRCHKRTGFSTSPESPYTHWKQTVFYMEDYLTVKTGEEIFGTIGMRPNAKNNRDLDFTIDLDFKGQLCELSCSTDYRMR

[34] = system: primary murine hematopoietic progenitors transformed by MLL-AF9; experiment: Proliferation of transformed hematopoietic progenitors; assay type: cell-based; conditions: 10 days treatment, MTT at day 12
[35] = molecular target: EHMT2 (Homo sapiens, UniProt Q96KQ7); experiment: Histone methyltransferase panel IC50, balanced conditions
Sequence of EHMT2 (Q96KQ7 whole entry): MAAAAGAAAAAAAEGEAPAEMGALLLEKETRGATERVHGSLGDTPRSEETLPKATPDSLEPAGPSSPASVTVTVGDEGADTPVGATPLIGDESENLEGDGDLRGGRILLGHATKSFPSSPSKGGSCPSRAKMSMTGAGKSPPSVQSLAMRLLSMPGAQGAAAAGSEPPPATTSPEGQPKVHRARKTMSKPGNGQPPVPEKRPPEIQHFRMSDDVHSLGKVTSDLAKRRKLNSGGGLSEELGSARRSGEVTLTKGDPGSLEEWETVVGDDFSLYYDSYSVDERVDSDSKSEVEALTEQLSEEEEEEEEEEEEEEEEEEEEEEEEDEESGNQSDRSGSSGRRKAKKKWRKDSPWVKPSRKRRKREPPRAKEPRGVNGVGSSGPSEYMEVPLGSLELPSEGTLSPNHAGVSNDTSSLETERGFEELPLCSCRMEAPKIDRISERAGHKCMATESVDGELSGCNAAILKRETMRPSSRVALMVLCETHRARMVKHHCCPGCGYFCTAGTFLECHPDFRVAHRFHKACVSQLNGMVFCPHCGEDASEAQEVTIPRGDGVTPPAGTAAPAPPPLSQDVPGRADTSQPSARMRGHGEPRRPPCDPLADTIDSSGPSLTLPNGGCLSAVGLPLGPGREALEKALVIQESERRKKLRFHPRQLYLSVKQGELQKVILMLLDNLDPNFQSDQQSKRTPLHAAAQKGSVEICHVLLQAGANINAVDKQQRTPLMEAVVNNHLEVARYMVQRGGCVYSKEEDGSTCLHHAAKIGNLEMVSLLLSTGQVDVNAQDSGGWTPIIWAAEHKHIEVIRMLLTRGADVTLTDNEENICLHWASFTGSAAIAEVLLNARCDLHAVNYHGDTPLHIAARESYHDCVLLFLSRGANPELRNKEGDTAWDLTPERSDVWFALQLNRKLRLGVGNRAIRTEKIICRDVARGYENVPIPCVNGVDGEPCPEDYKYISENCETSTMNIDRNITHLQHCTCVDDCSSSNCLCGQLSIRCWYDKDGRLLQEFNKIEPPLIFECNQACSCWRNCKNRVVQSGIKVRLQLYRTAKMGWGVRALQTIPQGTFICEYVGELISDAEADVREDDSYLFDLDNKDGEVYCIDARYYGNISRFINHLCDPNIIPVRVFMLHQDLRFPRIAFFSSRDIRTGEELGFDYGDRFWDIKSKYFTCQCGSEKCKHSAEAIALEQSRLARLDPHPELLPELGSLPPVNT

[36] = system: H3K79me2 levels in Jurkat cells; experiment: Immunoblot of extracted histones for H3K79me2; assay type: cell-based, human; conditions: 4 days, increasing concentrations
[37] = molecular target: WHSC1 (Homo sapiens, UniProt O96028); experiment: Histone methyltransferase panel IC50, balanced conditions
[38] = read-out: IC50 decrease of HOXA9 transcript
[39] = read-out: IC50 decrease of MEIS1 transcript

With CC(C)N(CCCNC(=O)Nc1ccc(C(C)(C)C)cc1)C[C@H]1O[C@@H](n2ccc3c(N)ncnc32)[C@H](O)[C@@H]1O [EPZ004777] the H3K79me1 levels [1] was “reduced”, the “H4R3me2 (residue targeted by PRMT5)” value [1] was “no changes” and the “methylation state of H3K9 and H3K4 (PRDM and SMYD family targets)” value [1] was “did not change”. The “time to full depletion of H3K79me2” value ([2]; 3 μM) was 4 to 5 days, the “global H3K79me2 levels” value ([2]; 4 days, increasing concentrations) was “concentration-dependent reduction” and the IC50 [3] was 6.47 µM. The IC50 [4, 38] was ~0.7 µM, the IC50 [4, 39] was ~0.7 µM and the IC50 [5] was > 50 µM. The IC50 [6] was 1.72 µM, the “cell surface expression of CD14” value [7] was “induced” and the IC50 [8, 38] was ~0.7 µM. The IC50 [8, 39] was ~0.7 µM, the pharmacokinetic properties ([9]; precluded conventional dosing) was “poor” and the “average circulating plasma level” value ([9]; pump 50 mg/ml, s.c. MV4-11 xenograft mice) was 0.55 ± 0.12 µM. The “average steady-state plasma concentration” value ([9]; pump 100 mg/ml) was 0.64 ± 0.48 µM, the “average steady-state plasma concentration” value ([9]; pump 150 mg/ml) was 0.84 ± 0.45 µM and the IC50 [10] was > 50 µM. The IC50 [11] was 33 µM, the H3K79 methylation [12] was “inhibited H3K79 methylation” and the “survival of transformed progenitors” value [13] was “unaffected”. For the same compound, the IC50 [14] was 13.9 µM, the bone marrow cellularity [15] was “preserved” and the “colony forming potential of bone marrow progenitors” value [15] was “did not find any significant differences”. For the same compound, the “granulocyte/monocyte progenitors (GMP)” value [15] was “not significantly affected”, the overt toxicity [15] was “no overt toxicity” and the tolerability [15] was “well tolerated”. For the same compound, the “populations highly enriched for hematopoietic stem cells” value ([15]; versus control mice) was “did not reveal any difference”, the “committed progenitors (Lin-Sca-1-c-Kit+)” value ([15]; most apparent in CMP and MEP) was “statistically significant decrease” and the “total white blood cell count” value ([15]; neutrophils, monocytes, lymphocytes increased) was “statistically significant increase”. The IC50 [16] was > 50 µM, the G0/G1 phase cells ([17]; 4 days) was “modest increase” and the S-phase cells ([17]; 4 days) was “decrease”. For the same compound, the “sub-G1 and Annexin-positive cells” value ([17]; days 4 to 10) was “increase”, the IC50 [18] was > 50 µM and the IC50 [19] was > 50 µM. The H3K79 methylation [20] was “inhibited H3K79 methylation”, the “number of viable cells” value ([21]; 3 μM, extended treatment) was “dramatically reduced” and the IC50 ([21]; Homo sapiens, 336 h, read-out: IC50 inhibition of cell proliferation) was 0.72 µM. For the same compound, the “pump implant site reaction” value ([22]; 100 and 150 mg/ml groups) was “Local irritation at the pump implant site”, the body weight ([22]; NSG mice, 14 days) was “no significant weight loss” and the tolerability ([22]; NSG mice, 14 days) was “well tolerated”. The median survival ([22]; pumps 50, 100 or 150 mg/ml, 14 days exposure, log-rank test) was “dose-dependent and statistically significant increase”, the IC50 [23] was > 50 µM and the IC50 ([24]; IC50, ± 95% confidence interval) was 0.521 ± 0.137 µM. The IC50 ([24]; biochemical IC50, only HMT other than DOT1L below this bound) was < 50 µM, the “time to maximal reduction of HOXA9 and MEIS1 transcripts” value [25] was 6 to 8 days and the “time to significant decrease of HOXA9 and MEIS1 transcripts” value [25] was ≤ 48 h. For the same compound, the “transcript levels of housekeeping gene TBP” value ([25]; 8 days) was “unaffected”, the “number of viable cells” value ([26]; 3 μM, extended treatment) was “dramatically reduced” and the IC50 ([26]; Homo sapiens, MV4-11, 336 h, read-out: IC50 inhibition of cell proliferation) was 0.17 µM. The IC50 [27] was > 50 µM, the growth of cells ([28]; 3 μM, extended treatment) was “unaffected” and the IC50 ([28]; Homo sapiens, Jurkat, 336 h, read-out: IC50 inhibition of cell proliferation) was > 50 µM. The IC50 [29] was 0.62 µM, the solubility [30] was ≤ 50 µM and the solubility ([30]; 15% ethanol, 50% PEG300, 35% water) was 150 mg/mL. The IC50 [31] was 36.6 µM, the “global H3K79me2 levels” value [32] was “concentration-dependent reduction” and the IC50 [33] was > 50 µM. The “concentration strongly inhibiting proliferation” value [34] was ≥ 3 µM, the IC50 [35] was > 50 µM and the “global H3K79me2 levels” value [36] was “concentration-dependent reduction”. For the same compound, the IC50 [37] was > 50 µM.
